In experiment [1] the test system is HT1080 cells. Description: Time-course of intracellular uptake amount of MEND (Cy5-labeled pDNA, FACS). Format: cell-based. To be noted: pDNA 1.6 μg/2 mL/well; 1, 3, 6 hr. How it is done:
MENDs of B-2-4 (Example 4), B-2 (Example 1) were prepared according to [Experimental Example 1] (1), (2), [Experimental Example 15]. For the preparation, PEG2000-DMG was used as PEG lipid, and MEND solutions corresponding to 0.55 mM of the lipid concentration were prepared. For cationic MEND, lipids having a composition of DOTAP (Comparative Example 3):DOPE:Chol:=3:4:3 were used, and the cationic MEND was prepared according to the method described in [Experimental Example 1] (3). pDNA was labeled with fluorescence according to the method described in [Experimental Example 15] (2).
HT1080 cells were plated on a 6-well plate at 2×10^5 cells/2 mL/well 24 hr before, various sample MENDs were diluted with DMEM (FBS+) to a pDNA concentration of 1.6 μg/2 mL/well and transfected into the well. After 1, 3, 6 hr, MEND-containing DMEM was removed, and the cells were washed twice with heparin (20 units/mL, 1 mL), and further once with PBS(−) (1 mL). 0.05% Trypsin solution (500 μL) was added, and the cells were stood in an incubator at 37° C. for 3 min. DMEM (FBS+) (1 mL) was added and the mixture was centrifuged (700 g, 4° C., 5 min). The supernatant was removed and the cells were suspended in FACS buffer (1 mL). […] The suspension was passed through a 44 μm nylon mesh immediately before the measurement, and the fluorescence intensity of intracellular Cy5 was measured.

Experiment [2] has as its system HT1080 cells. Put plainly: Intracellular kinetics (nuclear transport), confocal microscopy. The format is cell-based. The settings on record: 3 hr after transfection. An excerpt:
For MEND preparation, Rhodamine-labeled pDNA prepared by the method of [Experimental Example 1] (4) was used. For preparation of MEND encapsulating the rhodamine-labeled pDNA, the pDNA solution described in [Experimental Example 1] (1) was completely replaced by rhodamine-labeled pDNA. In addition, the lipid constituting MEND was labeled with fluorescence by the method described in [Experimental Example 1] (3). MENDs having a composition of B-2-4 (Example 4):DOPE:Chol=3:3:4, B-2 (Example 1):SOPE:Chol=5:3:2 were prepared by the method described in [Experimental Example 1] (2). For the preparation, PEG2000-DMG was used as PEG lipid, and MEND solutions corresponding to 0.55 mM of the lipid concentration were prepared.
HT1080 cells were plated on a glass bottom dish at 5×10^4 cells/2 mL/dish 24 hr before. MEND was diluted with DMEM (FBS 10%+) to achieve pDNA 1.6 μg/2 mL and transfected into cells. After 3 hr, hoechst33342 (1 μL) was added and, 10 min later, the cells were washed twice with heparin solution (20 units/mL, 2 mL). Krebs buffer (1 mL) was added, and the image was obtained by a confocal laser scan microscope.

Experiment [3] concerns HT1080 cells. Put plainly: Intracellular uptake pathway: influence of sucrose, amiloride, filipin on uptake amount. Format: cell-based. To be noted: 0.3M sucrose, 1 mM amiloride, 3 hr. The method, then: MENDs of B-2-4 (Example 4), B-2 (Example 1) were prepared according to [Experimental Example 1] (1), (2), [Experimental Example 18]. For the preparation, PEG2000-DMG was used as PEG lipid, and MEND solutions corresponding to 0.55 mM of the lipid concentration were prepared. pDNA was labeled with fluorescence according to the method described in [Experimental Example 15] (2).
HT1080 cells were plated on a 6-well plate at 2×10^5 cells/2 mL/well 24 hr before. The medium was changed to DMEM (FBS+) containing filipin at a final concentration of […] 30 min before transfection. The medium was changed to DMEM (FBS+) containing a final concentration of 0.3M sucrose, and 1 mM amiloride 15 min before transfection. For transfection, various MENDs were added to the dish at 1.6 μg/2 mL/dish based on the pDNA amount. 3 hr after the transfection, the intracellular pDNA amount was measured by the method described in [Experimental Example 19] (1).

The test system of experiment [4] is HT1080 cells. Put plainly: Inhibitory effect of retinoic acid (RA) on gene expression. The settings on record: 0, 5, 7.5, 10 μM RA. Format: cell-based. The method, then:
MENDs of B-2-4 (Example 4), B-2 (Example 1) were prepared according to [Experimental Example 1] (1), (2), [Experimental Example 18]. For the preparation, PEG2000-DMG was used as PEG lipid, and MEND solutions corresponding to 0.55 mM of the lipid concentration were prepared.
HT1080 cells were plated on a 3.5 cm cell culture dish at 4×10^4 cells/2 mL/dish 24 hr before, various MENDs were diluted with DMEM (FBS 10%+, Phenol red free) containing a final concentration 200 μM of D-luciferin potassium and 0, 5, 7.5, 10 μM RA (sigma) to achieve 1.6 μg/2 mL/dish based on the pDNA amount and transfection was performed. According to the Kronos Dio package insert, the luminescence amount was measured for 2 min every 20 min and taken as the luciferase activity (RLU/2 min).

The test system of experiment [5] is Rabbit Reticulocyte Lysate Systems. Put plainly: Influence on in vitro translation reaction (luciferase mRNA). Format: biochemical. To be noted: MEND 0.0625-0.25 μg per 1 μL mRNA solution, 30° C., 90 min. The method, then: MENDs having a composition of B-2:SOPE:Chol=5:3:2 were prepared by the method described in [Experimental Example 1] (2). For the preparation, PEG2000-DMG was used as PEG lipid, and MEND solutions corresponding to 0.55 mM of the lipid concentration were prepared. For cationic MEND, lipids having a composition of DOTAP:DOPE:Chol:=3:4:3 were used, and the cationic MEND was prepared according to the method described in [Experimental Example 1] (3).
Luciferase-mRNA solution was diluted to 0.005 μg/μL. Various MEND solutions were added in 0.0625, 0.125, 0.25 μg relative to 1 μL of mRNA solution to adjust the total amount to 6.5 μL. A mixture of RRL (Rabbit Reticulocyte Lysate, 17.5 μL), AAM (Amino Acid Mixture)-Met (0.25 μL), AAM-Leu (0.25 μL), and RRI (Recombinant RNase Inhibitor, 0.5 μL) was added, and the mixture was stood at 30° C. for 90 min.
10 μL thereof was mixed with a Luciferase assay substrate (50 μL), and the luciferase activity in a given time was measured by a luminometer. […] Thereafter, the absorbance at 562 nm was measured, and the protein amount of the sample was calculated from the absorbance of a BSA solution having a known concentration. The luciferase activity (RLU) was adjusted by dividing with protein amount (mg), and the luciferase activity per cellular protein amount (RLU/mg protein) was calculated.

Entries after “also recorded” stand apart in the source; their conditions may differ.

Turning to `CC1=C(/C=C/C(C)=C/C=C/C(C)=C/C(=O)OCCCN(C)CCSSCCN(C)CCCOC(=O)/C=C(C)/C=C/C=C(C)/C=C/C2=C(C)CCCC2(C)C)C(C)(C)CCC1` [Example B-2-4], the “intracellular uptake amount (Cy5-labeled pDNA)” value in the experiment with HT1080 cells [1] is “low as compared to the MENDs using DOTAP; also recorded: more highly uptaken than B-2”. Also, the intracellular localization result in the experiment on HT1080 cells [2] was “accumulate near the nucleus”. Also, the “intracellular uptake with sucrose, amiloride, filipin” value with HT1080 cells [3] is “sucrose- and amiloride-sensitive”. Further, the “gene expression activity in presence of RA” value with HT1080 cells [4] is given as “decreased by RA in a concentration dependent manner”.

On to `CCCCCCCC/C=C\CCCCCCCC(=O)OCC(C[N+](C)(C)C)OC(=O)CCCCCCC/C=C\CCCCCCCC` (stereo not shown) [DOTAP, reference compound], for which the “inhibitory effect on in vitro translation reaction” value in experiment [5] is listed as “significant inhibitory effect”.

On to `CCCCCCCCCCCCCC(=O)OCCCN(C)CCSSCCN(C)CCCOC(=O)CCCCCCCCCCCCC` [Example B-2], for which, in the experiment with HT1080 cells [1], the “intracellular uptake amount (Cy5-labeled pDNA)” value is on record as “low as compared to the MENDs using DOTAP”. Besides, the intracellular localization entry in the experiment with HT1080 cells [2] was “diffused in the cell”. For the same compound, the “intracellular uptake with sucrose, amiloride, filipin” value with HT1080 cells [3] was “sucrose- and amiloride-sensitive”. Besides, in experiment [5], the “inhibitory effect on in vitro translation reaction” value is on record as “not observed”. The “gene expression activity in presence of RA” value with HT1080 cells [4] is on record as “not decreased”.

These data come from patent publication US9708628B2, “Cationic lipid having improved intracellular kinetics” (NOF CORPORATION, priority 2011, dated 2017).
